# Test results: patent publication US20130072427A1, “GPR 119 MODULATORS” (Pfizer Inc., priority 2009, published 2013)
# Where “and” joins values, the source holds several entries; their conditions need not be identical. Equal entries are not always repeated.
# Tests used:
# human GPR119 [1] = target: T1, human GPR119 (Homo sapiens, UniProt Q8TDV5); test: Beta-arrestin functional assay (DiscoverX PathHunter U2OS hGPR119 β-arrestin cells); type: cell-based; set-up: Emax: dose or concentration left out as unconfirmed; settings: one line per run; for EC50: U2OS hGPR119 β-arrestin cells, 90 minute incubation, read-out: Human B-arrestin Functional EC50; for Emax: U2OS, percent of maximal activity relative to standard GPR119 agonist (WO2005121121) at 10 microM, read-out: Intrinsic Activity* (%) (B-arrestin)
# T1 construct: host or cells: U2OS
# Procedure: GPR119 agonist activity was also determined with a cell-based assay utilizing DiscoverX PathHunter β-arrestin cell assay technology and their U2OS hGPR119 β-arrestin cell line (DiscoverX Cat #93-0356C3). In this assay, agonist activation is determined by measuring agonist-induced interaction of β-arrestin with activated GPR119. A small, 42 amino acid enzyme fragment, called ProLink was appended to the C-terminus of GPR119. Arrestin was fused to the larger enzyme fragment, termed EA (Enzyme Acceptor). Activation of GPR119 stimulates binding of arrestin and forces the complementation of the two enzyme fragments, resulting in formation of a functional β-galactosidase enzyme capable of hydrolyzing substrate and generating a chemiluminescent signal.
# Specifically, U2OS hGPR119 β-arrestin cells (DiscoverX 1×10^7/ml) are removed from cryopreservation and diluted in growth medium (Minimum essential medium (MEM; Gibco Cat #11095-080), 10% heat inactivated fetal bovine serum (HIFBS; Sigma Cat #F4135-100), 100 mM sodium pyruvate (Sigma Cat #S8636), 500 microg/mL G418 (Sigma Cat #G8168) and 250 microg/mL Hygromycin B (Invitrogen Cat #10687-010). The cell concentration was adjusted to 1.66×10^5 cells/ml and 30 mls of this suspension was added to a T-175 flask and incubated at 37 degrees Celsius in a humidified environment in 5% carbon dioxide. After 48 hours, the cells were removed from the T-175 flask with enzyme-free cell dissociation buffer (Gibco cat #13151-014), centrifuged at 800×g and then re-suspended in plating medium (Opti-MEM I (Invitrogen/BRL Cat #31985-070) and 2% charcoal dextran treated fetal bovine serum (CD serum; HyClone Cat #SH30068.03). The cell concentration was adjusted to 2.5×10^5 cells/ml with plating medium and 10 microL of this cell suspension (2500 cells) was added to each well of a white Greiner 384-well low volume assay plate (VWR cat #82051-458) and the plates were incubated at 37 degrees Celsius in a humidified environment in 5% carbon dioxide.
# After 16 hours (overnight) the assay plates were removed from the incubator and varying concentrations of each compound to be tested (diluted in assay buffer (1×HBSS+CaCl2+MgCl2 (Gibco Cat #14025-092), 20 mM HEPES pH 7.0 (Gibco Cat #15630-080) and 0.1% BSA (Sigma Cat #A9576)) were added to the assay plate wells in a volume of 2.5 microL (final DMSO concentration was 0.5%). After a 90 minute incubation at 37 degrees Celsius in a humidified environment in 5% carbon dioxide, 7.5 microL of Galacton Star β-galactosidase substrate (PathHunter Detection Kit (DiscoveRx Cat #93-0001); prepared as described in the manufacturers assay protocol) was added to each well of the assay plate. The plates were incubated at room temperature and after 60 minutes, changes in the luminescence were read with an Envision 2104 multilabel plate reader at 0.1 seconds per well. EC50 determinations were made from an agonist-response curves analyzed with a curve fitting program using a 4-parameter logistic dose response equation.
# T1 sequence (P32121 whole entry partner, one chain of several): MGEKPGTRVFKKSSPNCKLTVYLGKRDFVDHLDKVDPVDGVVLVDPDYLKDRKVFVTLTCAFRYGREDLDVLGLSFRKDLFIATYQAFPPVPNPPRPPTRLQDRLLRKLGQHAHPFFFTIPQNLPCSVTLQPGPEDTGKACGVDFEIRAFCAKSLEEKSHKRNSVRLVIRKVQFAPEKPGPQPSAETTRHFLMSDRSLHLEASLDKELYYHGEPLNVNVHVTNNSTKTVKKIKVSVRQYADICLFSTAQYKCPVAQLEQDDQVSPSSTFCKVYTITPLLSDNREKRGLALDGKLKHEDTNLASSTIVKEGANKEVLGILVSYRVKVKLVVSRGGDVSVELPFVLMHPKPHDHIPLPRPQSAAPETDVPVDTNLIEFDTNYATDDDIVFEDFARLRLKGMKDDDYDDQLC
# human GPR119 [2] = target: T2, human GPR119 (Homo sapiens, UniProt Q8TDV5); test: Beta-lactamase functional assay (hGPR119 HEK293-CRE beta-lactamase reporter); type: cell-based; settings: one line per run; for EC50: hGPR119 HEK293-CRE beta-lactamase cells, 16 hours incubation, read-out: Human B-lactamase Functional EC50; for Emax: percent of maximal activity relative to standard GPR119 agonist (WO2005121121) at 10 microM, read-out: Intrinsic Activity* (%) (B-lactamase)
# T2 construct: host or cells: HEK293-CRE beta-lactamase cells
# T2 sequence (Q8TDV5 1-335): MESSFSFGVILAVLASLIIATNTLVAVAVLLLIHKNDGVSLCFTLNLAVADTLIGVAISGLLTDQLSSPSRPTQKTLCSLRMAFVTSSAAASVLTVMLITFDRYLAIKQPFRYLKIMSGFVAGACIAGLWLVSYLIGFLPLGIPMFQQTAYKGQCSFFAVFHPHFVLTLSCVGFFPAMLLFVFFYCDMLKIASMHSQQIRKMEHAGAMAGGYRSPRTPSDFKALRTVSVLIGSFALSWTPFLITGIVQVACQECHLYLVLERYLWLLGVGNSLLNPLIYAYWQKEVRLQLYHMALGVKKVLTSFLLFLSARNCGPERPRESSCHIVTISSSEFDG
# Procedure: The assay for GPR119 agonists utilizes a cell-based (hGPR119 HEK293-CRE beta-lactamase) reporter construct where agonist activation of human GPR119 is coupled to beta-lactamase production via a cyclic AMP response element (CRE). GPR119 activity is then measured utilizing a FRET-enabled beta-lactamase substrate, CCF4-AM (Live Blazer FRET-B/G Loading kit, Invitrogen cat #K1027). Specifically, hGPR119-HEK-CRE-beta-lactamase cells (Invitrogen 2.5×10^7/mL) were removed from liquid nitrogen storage, and diluted in plating medium (Dulbecco's modified Eagle medium high glucose (DMEM; Gibco Cat #11995-065), 10% heat inactivated fetal bovine serum (HIFBS; Sigma Cat #F4135), 1×MEM Nonessential amino acids (Gibco Cat #15630-080), 25 mM HEPES pH 7.0 (Gibco Cat #15630-080), 200 nM potassium clavulanate (Sigma Cat #P3494). The cell concentration was adjusted using cell plating medium and 50 microL of this cell suspension ([…]) was added into each well of a black, clear bottom, poly-d-lysine coated 384-well plate (Greiner Bio-One cat #781946) and incubated at 37 degrees Celsius in a humidified environment containing 5% carbon dioxide. After 4 hours the plating medium was removed and replaced with 40 microL of assay medium (Assay medium is plating medium without potassium clavulanate and HIFBS). Varying concentrations of each compound to be tested was then added in a volume of 10 microL (final DMSO≦0.5%) and the cells were incubated for 16 hours at 37 degrees Celsius in a humidified environment containing 5% carbon dioxide. Plates were removed from the incubator and allowed to equilibrate to room temperature for approximately 15 minutes. 10 microL of 6×CCF4/AM working dye solution (prepared according to instructions in the Live Blazer FRET-B/G Loading kit, Invitrogen cat #K1027) was added per well and incubated at room temperature for 2 hours in the dark. Fluorescence was measured on an EnVision fluorimetric plate reader, excitation 405 nm, emission 460 nm/535 nm. EC50 determinations were made from agonist-response curves analyzed with a curve fitting program using a 4-parameter logistic dose-response equation.
EC50 (human GPR119 [1]),Emax (human GPR119 [1]) [%],EC50 (human GPR119 [2]) [nM],Emax (human GPR119 [2]) [%],SMILES
23 nM,77,–,–,"Cc1c(O[C@H]2CCN(C(=O)OC3(C)CC3)C[C@H]2F)ncnc1N1Cc2cnn(C)c2C1 (racemic) [Example 7, 1-Methylcyclopropyyl (3,4-cis)-3-fluoro-4-{[5-methyl-6-(1-methyl-4,6-dihydropyrrolo[3,4-c]pyrazol-5(1H)-yl)pyrimidin-4-yl]oxy}piperidine-1-carboxylate (racemic)]"
–,–,662,103,"Cc1c(OC2CCN(C(=O)OC(C)C)CC2)ncnc1N1Cc2cnn(C)c2C1 [Example 2, Isopropyyl 4-{[5-methyl-6-(1-methyl-4,6-dihydropyrrolo[3,4-c]pyrazol-5(1H)-yl)pyrimidin-4-yl]oxy}piperidine-1-carboxylate]"
–,–,2050,107,"CC(C)OC(=O)N1CCC(Oc2ncnc(N3Cc4cnn(C)c4C3)c2C#N)CC1 [Example 3, Isopropyyl 4-{[5-cyano-6-(1-methyl-4,6-dihydropyrrolo[3,4-c]pyrazol-5(1H)-yl)pyrimidin-4-yl]oxy}piperidine-1-carboxylate]"
81 nM and 754 nM,–,–,–,"Cc1c(O[C@H]2CCN(C(=O)OC(C)(C)C)C[C@@H]2F)ncnc1N1Cc2cnn(C)c2C1 (racemic) [Example 8, tert-Butyl (3,4-trans)-3-fluoro-4-{[5-methyl-6-(1-methyl-4,6-dihydropyrrolo[3,4-c]pyrazol-5(1H)-yl)pyrimidin-4-yl]oxy}piperidine-1-carboxylate (racemic)]"
19 nM,67,–,–,"Cc1c(O[C@H]2CCN(C(=O)OC(C)(C)C)C[C@H]2F)ncnc1N1Cc2cnn(C)c2C1 (racemic) [Example 6, tert-Butyl (3,4-cis)-3-fluoro-4-{[5-methyl-6-(1-methyl-4,6-dihydropyrrolo[3,4-c]pyrazol-5(1H)-yl)pyrimidin-4-yl]oxy}piperidine-1-carboxylate (racemic)]"
56 nM,70,–,–,"Cc1c(O[C@H]2[C@@H]3COC[C@H]2CN(C(=O)OC(C)(C)C)C3)ncnc1N1Cc2cnn(C)c2C1 [Example 9, tert-Butyl (9-anti)-9-{[5-methyl-6-(1-methyl-4,6-dihydropyrrolo[3,4-c]pyrazol-5(1H)-yl)pyrimidin-4-yl]oxy}-3-oxa-7-azabicyclo[3.3.1]nonane-7-carboxylate]"
